Results on 101 compounds are retold here after PubChem BioAssay AID1996.

SMILES strings stand for the structures. Converted amounts (≈) assume the structure as drawn.

The conditions of this data set: buffer; pH 7.4; 200.0 µM.
In general, solubility (kinetic) refers to solubility judged after dilution from a stock solution rather than from solid. Compound `COc1ccc(OC)c(NC(=O)COC(=O)CCS(=O)(=O)c2ccc(Cl)cc2)c1` gave a solubility (kinetic) of 27.5 µg/mL (≈ 62.2 µM).
Next, `CCCC(=O)Nc1ccc(-c2nc3ncccc3o2)cc1`: 2.1 µg/mL (≈ 7.46 µM); `OCCNc1nc(-c2ccccc2)c2cc(Br)ccc2n1`: 24.2 µg/mL (≈ 70.3 µM).
Regarding `O=c1[nH]cnc2c1C(c1ccc(Cl)cc1)c1c(nc[nH]c1=O)O2`, the solubility (kinetic) worked out at 43.5 µg/mL (≈ 132 µM).
The compound `O=C(/C=C/c1cccs1)N1CCN(c2ccccc2)CC1` came in with a solubility (kinetic) of 1.6 µg/mL (≈ 5.36 µM).
The value for `CCc1sc(C(=O)N2CCN(c3ccc(F)cc3)CC2)cc1C` was 10.7 µg/mL (≈ 32.2 µM); that for `Cc1csc(SC(C)C(=O)Nc2ccc(F)cc2Cl)n1` (stereo unspecified) was 44.9 µg/mL (≈ 136 µM).
The value for `CCOC(=O)c1ccc(NC(=O)N2C[C@@H]3C[C@@H](C2)c2cccc(=O)n2C3)cc1` was greater than 57.2 µg/mL; that for `COc1ccc(-c2ccc(CCC(=O)O)n2NC(=O)c2ccc(O)cc2)cc1` was greater than 57.1 µg/mL.
On to `COc1cc(/C=C/c2noc(-c3ccccc3O)n2)ccc1OC(C)=O`, for which the kinetic solubility was less than 0.4 µg/mL.
Compound `CCc1ccc2nc(Nc3ncc(C(C)=O)c(C)n3)nc(C)c2c1` came in with a solubility (kinetic) of 6.9 µg/mL (≈ 21.5 µM).
Next, `COCCCN1C(=O)CS/C1=N\S(=O)(=O)c1ccccc1`: greater than 49.3 µg/mL.
Consider `Cc1cccc(OC(C)C(=O)NC2CCS(=O)(=O)C2)c1C` (stereo unspecified), for which the solubility (kinetic) was determined as 46.4 µg/mL (≈ 149 µM).
`CS(=O)(=O)N1CCc2cc(C(=O)Nc3ccccc3)ccc21` had a kinetic solubility of 2.3 µg/mL (≈ 7.27 µM).
`COc1ccc(-c2cc3nc(CCl)[nH]c(=O)c3s2)cc1` showed a kinetic solubility of 2.8 µg/mL (≈ 9.13 µM).
The value for `CCc1ccccc1NC(=O)COc1ccc2c(c1)OCO2` was 41.4 µg/mL (≈ 138 µM); that for `O=C(O)CCCN1C(=O)c2ccccc2Sc2ncccc21` was greater than 47.2 µg/mL; that for `Cc1ccc2[nH]c(CCN(C)C)c(CN3CCOCC3)c2c1` was greater than 45.2 µg/mL.
In the case of `COc1cccc2[nH]c3c(N4CCc5ccccc5C4)ncnc3c12`, the kinetic solubility came out at 0.9 µg/mL (≈ 2.72 µM).
Next, `CCOc1ccc(NS(=O)(=O)c2cc(C(=O)NCCN3CCOCC3)ccc2C)cc1`: 66.4 µg/mL (≈ 148 µM); `CC1CC(C)(C)CC2(C1)NC(=O)N(CC(=O)N1CCN(S(=O)(=O)c3cccc(F)c3)CC1)C2=O` (stereo unspecified): 4.9 µg/mL (≈ 9.91 µM).
Next, `CC(=O)N[C@@H](CS)C(=O)O`: greater than 24.5 µg/mL.
`O=C1CN(C(=O)COC(=O)COc2ccccc2)c2ccccc2N1`: the kinetic solubility was greater than 51.1 µg/mL.
The value for `Cl.O=C(OCCN1CCOCC1)c1ccccc1Cl` was greater than 45.9 µg/mL.
`Cc1ccc(S(=O)(=O)N(C)CC(=O)Nc2cccnc2)cc1` displayed a solubility (kinetic) of 41.5 µg/mL (≈ 130 µM).
`CCCc1c(C)nc(N2CCN(c3ccc(F)cc3)CC2)[nH]c1=O` showed a solubility (kinetic) of 1.2 µg/mL (≈ 3.63 µM).
Next, `COC(=O)c1cc(N=C(N)N=C(N)N)cc(C(=O)OC)c1`: greater than 44 µg/mL; `Cn1c(N)c(C(=O)COC(=O)CCC2CCCC2)c(=O)n(C)c1=O`: greater than 50.6 µg/mL.
`CCCCCCn1cc(C(=O)OCC)c(=O)c2cc(F)c(F)cc21`: the kinetic solubility was 43.6 µg/mL (≈ 129 µM).
With `N#Cc1ccc(NC(=O)COC(=O)c2cccnc2Cl)cc1`, the kinetic solubility was greater than 47.4 µg/mL.
`CCOc1ccc(NC(=O)C(=O)NCc2ccncc2)cc1` gave a kinetic solubility of 12.5 µg/mL (≈ 41.8 µM).
In turn, `C=CCNc1nc(N)c([N+](=O)[O-])c(Nc2ccccc2OC)n1` registered a solubility (kinetic) of 0.4 µg/mL (≈ 1.26 µM).
`CN(c1ccc(OCC(=O)Nc2ccccc2C(=O)O)cc1)S(=O)(=O)c1ccc(Cl)cc1` showed a kinetic solubility greater than 71.2 µg/mL.
Consider `O=C(NCCCNC(=O)c1cc(Cl)ccc1Cl)c1cnccn1`, for which the solubility (kinetic) was 45.4 µg/mL (≈ 129 µM).
Next, `COc1ccc2[nH]cc(CCNC(=O)c3ccc([N+](=O)[O-])cc3)c2c1`: 26.3 µg/mL (≈ 77.5 µM); `CN1C(=O)/C(=C/c2ccc(OCc3ccc(F)cc3)cc2)N(C)C1=S`: less than 0.4 µg/mL; `CC(=O)c1ccc(N2CCN(C(=O)Nc3ccc(C)cc3)CC2)cc1`: 1.4 µg/mL (≈ 4.15 µM).
`O=C(N/N=C1\CC2CC=CC12)c1ccc(Br)cc1` (stereo unspecified) registered a kinetic solubility greater than 45.8 µg/mL.
As to `Cc1ccc(N2C(=O)CN=C2Nc2nc(C)cc(C)n2)cc1`, the solubility (kinetic) is greater than 44.3 µg/mL.
On to `NC(=O)C1CCN(C(=O)c2cc(-c3ccc(Cl)s3)nc3ccccc23)CC1`, for which the kinetic solubility was found to be 9.4 µg/mL (≈ 23.5 µM).
On to `CC(=O)Nc1ccc(S(=O)(=O)Nc2ccc3c(c2)OCO3)cc1`, for which the solubility (kinetic) is greater than 50.2 µg/mL.
`N#Cc1ccc(-c2ccc(OCC3CNC(=O)O3)cc2)cc1` (stereo unspecified) showed a solubility (kinetic) of 11.3 µg/mL (≈ 38.4 µM).
In the case of `CC(C)Sc1ccccc1C(=O)Nc1ccc2c(c1)n(C)c(=O)n2C`, the solubility (kinetic) was greater than 53.3 µg/mL.
The value for `N#Cc1ccc(-c2ccc(OCC(O)CN3CCCCC3)cc2)cc1` (stereo unspecified) was 42.4 µg/mL (≈ 126 µM).
The value for `O=C(NC(=O)N1CCSCC1)c1c(Cl)cccc1Cl` was greater than 47.9 µg/mL.
`COc1ccc(OC)c(/C=C/C(=O)OCC(=O)NCc2ccccc2)c1` had a solubility (kinetic) of 15.1 µg/mL (≈ 42.5 µM).
Compound `CCOc1ccc(N2CC(C(=O)NCc3ccccn3)CC2=O)cc1` (stereo unspecified) gave a solubility (kinetic) of 37.5 µg/mL (≈ 110 µM).
Next, `O=C(Nc1ccccc1F)c1ccc2c(c1)OCO2`: greater than 38.9 µg/mL; `CC(=O)Nc1ccc(SCC(=O)Nc2sccc2C#N)cc1`: 26.5 µg/mL (≈ 80 µM).
Next, `COc1ccc(NC(=O)COC(=O)Cn2cnc3ccccc32)cc1`: greater than 50.9 µg/mL; `CCCOc1ccccc1/C=C(\C#N)C(=O)Nc1cccc(C)n1`: 5.1 µg/mL (≈ 15.9 µM).
As for `CC1=NN(c2nc3ccccc3[nH]2)C(=O)/C1=C/N(C)C`, the solubility (kinetic) was greater than 40.4 µg/mL.
Next, `S=C(NCCc1ccccc1)NCc1cccc(Cl)c1`: 13.9 µg/mL (≈ 45.6 µM); `O=C(CCc1ccccc1)OCC(=O)c1cccc([N+](=O)[O-])c1`: greater than 47 µg/mL; `Fc1ccc(CNCCc2ccc3c(c2)OCO3)cc1`: 31.1 µg/mL (≈ 114 µM).
The compound `O=C(/C=C/c1ccc(Cl)c([N+](=O)[O-])c1)c1cccnc1` displayed a solubility (kinetic) of 2.2 µg/mL (≈ 7.62 µM).
Next, `CCN(CC)CCN=Cc1c(O)n(Cc2ccco2)c(=O)[nH]c1=O`: greater than 50.2 µg/mL.
For the compound `CC1CC(CCN)(c2ccccc2)C(C)CN1C.Cl` (stereo unspecified), the solubility (kinetic) was greater than 47.9 µg/mL.
Next, `COc1cc(C2(c3ccc(O)c(OC)c3)C(=O)N(C)c3ccc(C)cc32)ccc1O`: 51.4 µg/mL (≈ 127 µM); `CC1(C)CC(c2nc(-c3ccc([N+](=O)[O-])cc3)cs2)CCO1` (stereo unspecified): 19.3 µg/mL (≈ 60.6 µM); `Cc1ccc(Br)cc1S(=O)(=O)Nc1cccnc1`: greater than 49.1 µg/mL.
Next, `NS(=O)(=O)c1ccc(NC(=O)COC(=O)c2ccco2)cc1`: 30 µg/mL (≈ 92.5 µM).
Next, `CC(C)(C)NC(=O)NC(=O)CN1CCCc2ccccc21`: 11.9 µg/mL (≈ 41.1 µM).
In the case of `Nc1nc(Nc2ccc(Cl)cc2)nc(NCc2ccco2)c1[N+](=O)[O-]`, the solubility (kinetic) came to 1 µg/mL (≈ 2.77 µM).
Compound `Cc1cc(C)c(C(=O)N2CCC3(CC2)OCCO3)c(C)c1` came in with a solubility (kinetic) greater than 43.4 µg/mL.
The value for `CCN(CC)CC#Cc1ccc(C)cc1.Cl` was 17.1 µg/mL.
`COc1ccc(CCNC(=O)CCCc2ccccc2)cc1` returned a solubility (kinetic) of 35.6 µg/mL (≈ 120 µM).
As to `CC1CN(C(=S)NC2CCCC2)CC(C)O1` (stereo unspecified), the kinetic solubility was greater than 36.4 µg/mL.
For the compound `c1ccc(C2CCC(N3CCN(c4ccccc4)CC3)CC2)cc1` (stereo unspecified), the kinetic solubility was 1.3 µg/mL (≈ 4.06 µM).
Regarding `CC(C)Cc1ccc(S(=O)(=O)Nc2ccc3[nH]c(=O)[nH]c3c2)cc1`, the kinetic solubility came out at 1.1 µg/mL (≈ 3.18 µM).
Compound `COc1cc(/C=N/NC(=O)CNC(=O)c2ccncc2)ccc1OC(C)=O` displayed a kinetic solubility greater than 55.6 µg/mL.
Next, `Cc1ccc(C23CCC(=O)N2C(C(=O)O)CS3)c(C)c1` (stereo unspecified): greater than 43.7 µg/mL; `CC(C)OP(=O)(OC(C)C)C(Nc1ccccc1)c1cccnc1` (stereo unspecified): 46.5 µg/mL (≈ 133 µM).
With `CCOC(=O)C1CCN(c2ccc([N+](=O)[O-])c(C(C)=O)c2)CC1`, the solubility (kinetic) is greater than 48.1 µg/mL.
On to `CSCCC1COC(c2cccs2)=N1` (stereo unspecified), for which the solubility (kinetic) was 29 µg/mL (≈ 128 µM).
Next, `CC(C)(C)c1ccc(NC(=O)CCNC(=O)c2ccco2)cc1`: greater than 47.2 µg/mL; `COc1ccc(C(=O)NCCCc2ccccc2)cc1OC`: greater than 44.9 µg/mL; `CC1Cc2ccccc2N1C(=O)C1CC(=O)N(c2ccccc2)C1` (stereo unspecified): 44.9 µg/mL (≈ 140 µM).
Next, `CC(C)CNC(=O)CN1c2cccc3cccc(c23)S1(=O)=O`: greater than 47.8 µg/mL; `CN1CC(=O)N(CC(=O)NC2CCCCC2)C1=O`: greater than 38 µg/mL; `CCn1c(=N)n(CC(O)COc2ccc(C)cc2)c2ccccc21.Cl` (stereo unspecified): greater than 54.3 µg/mL.
Next, `CC(C)NC(=S)N1CCC(Cc2ccccc2)CC1`: 24.4 µg/mL (≈ 88.3 µM); `CCc1noc(C)c1C(=O)Nc1nc2c(C)cc(C)cc2s1`: 3.2 µg/mL (≈ 10.1 µM); `N#Cc1c(-c2ccccc2)nc(-c2cccnc2)[nH]c1=O`: 40.2 µg/mL (≈ 147 µM).
`Cc1csc(NC(=O)Cc2ccc(Br)cc2)n1` showed a solubility (kinetic) of 36.5 µg/mL (≈ 117 µM).
Compound `Cc1nc(NS(=O)(=O)c2cccc([N+](=O)[O-])c2)sc1C(C)(C)C` registered a solubility (kinetic) of 5.4 µg/mL (≈ 15.2 µM).
The value for `Cc1noc(NS(=O)(=O)c2ccc(NS(=O)(=O)c3ccc(Cl)cc3)cc2)c1C` was greater than 66.3 µg/mL; that for `N/C(Cc1ccc([N+](=O)[O-])cc1)=N\OC(=O)c1ccccc1F` was 2.6 µg/mL (≈ 8.19 µM); that for `Cc1cc(C(=O)O)ccc1NCc1cccnc1` was 36 µg/mL (≈ 149 µM).
Next, `O=C(CC1SCCNC1=O)Nc1cccc([N+](=O)[O-])c1` (stereo unspecified): greater than 44.3 µg/mL; `CC(=O)Oc1c(C(C)C)cc(N(C(C)=O)c2ccccc2)cc1C(C)C`: 41.5 µg/mL (≈ 117 µM).
`CCOC(=O)c1sc(N)c(C(=O)OCC)c1C` registered a kinetic solubility of 4.4 µg/mL (≈ 17.1 µM).
On to `COc1cccc(N(CC(=O)N2CCOCC2)S(C)(=O)=O)c1`, for which the kinetic solubility was greater than 49.3 µg/mL.
Regarding `COC(=O)/C(C#N)=C/c1c(Oc2cccc(C)c2C)nc2ccccn2c1=O`, the solubility (kinetic) worked out at 1 µg/mL (≈ 2.66 µM).
Next, `O=C(c1cc2cc(Cl)ccc2oc1=O)N1CCCCCCC1`: 7.6 µg/mL (≈ 23.8 µM); `CCc1cc(C(=O)NCC2CCCO2)sc1C` (stereo unspecified): greater than 38 µg/mL.
The value for `COc1ccc(OC)c(NC(=O)COC(=O)C2CCCCC2)c1` was 2.9 µg/mL (≈ 9.02 µM).
Compound `Cc1sc2nc(SCC(=O)O)[nH]c(=O)c2c1C` yielded a kinetic solubility greater than 40.5 µg/mL.
The value for `COC(=O)C(O)(c1ccc(NC(=O)c2ccccc2)cc1)C(F)(F)F` (stereo unspecified) was 42.9 µg/mL (≈ 121 µM); that for `Cc1noc(C)c1S(=O)(=O)NCc1cccc(Cl)c1` was greater than 45.1 µg/mL; that for `Cc1cccc(/N=C/c2ccccn2)n1` was 27.5 µg/mL (≈ 139 µM).
